According to patent US20250346597A1, “CONDENSED HETEROCYCLIC COMPOUNDS AS INHIBITOR OF DIACYLGLYCEROL KINASES” (BEONE MEDICINES I GMBH, priority 2023, published 2025):

Key:
DGKζ = DGKζ (Homo sapiens (Human), UniProt Q13574); assay: Biochemical DGK IC50 assay (ADP-Glo, lipid micelle substrate), DGKζ; details: full length DGKζ 0.5 nM, ATP 140 μM, DAG 80 μM
Outline: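 ADP-Glo luminescence measured ADP made in a 1 h room-temperature reaction. The enzyme was Sf9-expressed, purified full-length human DGKζ, and the substrate was DAG/PS micelles. Assay buffer held 50 mM HEPES, 10 mM MgCl2, 0.01 mM CaCl2, 0.1 mM Na3VO4 and 0.01% BSA. IC50 was derived from activity inhibition over a compound concentration series.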

DGKα = DGKα (Homo sapiens (Human), UniProt P23743); assay: Biochemical DGK IC50 assay (ADP-Glo, lipid micelle substrate), DGKα; details: full length DGKα […], ATP 140 μM, DAG 80 μM; further: full length DGKα 7.5 nM
DGKα, sequence (P23743 whole entry): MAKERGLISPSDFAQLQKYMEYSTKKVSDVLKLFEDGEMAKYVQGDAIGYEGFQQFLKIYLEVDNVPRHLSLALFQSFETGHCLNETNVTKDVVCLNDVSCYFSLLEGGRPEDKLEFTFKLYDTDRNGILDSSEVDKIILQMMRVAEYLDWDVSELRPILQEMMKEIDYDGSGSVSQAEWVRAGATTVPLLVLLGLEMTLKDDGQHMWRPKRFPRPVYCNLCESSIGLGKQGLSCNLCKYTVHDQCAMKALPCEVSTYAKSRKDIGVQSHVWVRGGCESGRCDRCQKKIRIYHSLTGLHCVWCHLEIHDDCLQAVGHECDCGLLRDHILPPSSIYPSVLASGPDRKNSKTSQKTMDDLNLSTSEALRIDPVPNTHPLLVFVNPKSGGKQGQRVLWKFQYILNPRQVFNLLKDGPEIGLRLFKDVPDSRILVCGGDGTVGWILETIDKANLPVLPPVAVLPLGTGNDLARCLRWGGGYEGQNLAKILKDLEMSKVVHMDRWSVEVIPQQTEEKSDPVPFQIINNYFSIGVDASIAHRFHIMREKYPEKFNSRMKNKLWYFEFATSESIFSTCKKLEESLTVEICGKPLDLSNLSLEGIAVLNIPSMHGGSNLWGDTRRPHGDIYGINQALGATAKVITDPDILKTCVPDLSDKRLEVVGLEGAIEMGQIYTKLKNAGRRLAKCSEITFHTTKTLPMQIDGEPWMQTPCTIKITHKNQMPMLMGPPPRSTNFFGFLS
Outline: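 Luminescent ADP-Glo detection followed a 1 h room-temperature reaction of full-length DGKα on DAG/PS micelles, in HEPES buffer with 10 mM MgCl2, 0.01 mM CaCl2, 0.1 mM Na3VO4, BSA and Tween-20. IC50 derived from inhibition across increasing compound concentrations.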

DGKζ, sequence (Q13574 other isoform, or with tags, fused parts or gaps): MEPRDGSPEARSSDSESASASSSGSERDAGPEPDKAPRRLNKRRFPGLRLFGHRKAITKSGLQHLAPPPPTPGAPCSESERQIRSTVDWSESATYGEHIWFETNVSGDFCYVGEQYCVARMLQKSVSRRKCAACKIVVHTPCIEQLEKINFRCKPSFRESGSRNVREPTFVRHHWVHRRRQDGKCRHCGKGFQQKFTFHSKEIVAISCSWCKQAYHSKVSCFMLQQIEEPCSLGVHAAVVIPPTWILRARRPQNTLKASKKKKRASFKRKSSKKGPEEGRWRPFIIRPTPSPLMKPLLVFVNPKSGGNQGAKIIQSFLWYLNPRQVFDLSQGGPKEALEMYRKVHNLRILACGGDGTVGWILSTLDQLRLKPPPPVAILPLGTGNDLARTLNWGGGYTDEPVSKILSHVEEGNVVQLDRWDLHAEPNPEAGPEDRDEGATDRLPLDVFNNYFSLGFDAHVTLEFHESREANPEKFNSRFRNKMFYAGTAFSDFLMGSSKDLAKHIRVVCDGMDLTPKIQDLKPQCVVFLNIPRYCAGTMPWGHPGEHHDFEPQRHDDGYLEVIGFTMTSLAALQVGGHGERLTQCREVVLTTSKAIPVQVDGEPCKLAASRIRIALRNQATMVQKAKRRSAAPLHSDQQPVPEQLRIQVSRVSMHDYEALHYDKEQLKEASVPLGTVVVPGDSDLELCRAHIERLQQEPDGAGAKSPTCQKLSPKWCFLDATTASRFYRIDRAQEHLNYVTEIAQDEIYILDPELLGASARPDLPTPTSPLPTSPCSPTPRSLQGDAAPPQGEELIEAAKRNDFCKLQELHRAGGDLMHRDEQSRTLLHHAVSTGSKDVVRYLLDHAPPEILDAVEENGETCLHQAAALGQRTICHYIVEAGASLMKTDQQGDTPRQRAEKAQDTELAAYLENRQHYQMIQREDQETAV

| Structure (SMILES) | IC50 (DGKζ) | IC50 (DGKα) |
| --- | --- | --- |
| CC#CCn1cc2c(n1)c(N1C[C@@H](CC)N(C(C)c3ccc4ncsc4n3)C[C@@H]1C)cc(=O)n2C (stereo partly drawn) [Compound A118, 2-(but-2-yn-1-yl)-7-((2S,5R)-5-ethyl-2-methyl-4-(1-(thiazolo[5,4-b]pyridin-5-yl)ethyl)piperazin-1-yl)-4-methyl-2,4-dihydro-5H-pyrazolo[4,3-b]pyridin-5-one] | 232 nM | 20 nM |
| CC#CCn1cc2c(n1)c(N1C[C@@H](CC)N(C(C)c3ccc4scnc4c3)C[C@@H]1C)cc(=O)n2C (stereo partly drawn) [Compound A119, 7-((2S,5R)-4-(1-(benzo[d]thiazol-5-yl)ethyl)-5-ethyl-2-methylpiperazin-1-yl)-2-(but-2-yn-1-yl)-4-methyl-2,4-dihydro-5H-pyrazolo[4,3-b]pyridin-5-one] | 859 nM | 193 nM |
| CC[C@H]1CN(C(C)c2ccc(C3CC3)nc2)[C@H](CC)CN1c1cc(=O)n(C)c2cn(C3COC3)nc12 (stereo partly drawn) [Compound A121, 7-((2S,5R)-4-(1-(6-cyclopropylpyridin-3-yl)ethyl)-2,5-diethylpiperazin-1-yl)-4-methyl-2-(oxetan-3-yl)-2,4-dihydro-5H-pyrazolo[4,3-b]pyridin-5-one] | 1470 nM | 3080 nM |
| CC[C@H]1CN(C(C)c2ccc(C3CC3)nc2)[C@H](CC)CN1c1cc(=O)n(C)c2cn(CC3COC3)nc12 (stereo partly drawn) [Compound A122, 7-((2S,5R)-4-(1-(6-cyclopropylpyridin-3-yl)ethyl)-2,5-diethylpiperazin-1-yl)-4-methyl-2-(oxetan-3-ylmethyl)-2,4-dihydro-5H-pyrazolo[4,3-b]pyridin-5-one] | > 10000 nM | 17100 nM |
| CC[C@H]1CN(C(C)c2ccc3ncsc3c2)[C@H](CC)CN1c1nc(=O)n(C)c2cn(CC#N)nc12 (stereo partly drawn) [Compound A123, 2-(7-((2S,5R)-4-(1-(benzo[d]thiazol-6-yl)ethyl)-2,5-diethylpiperazin-1-yl)-4-methyl-5-oxo-4,5-dihydro-2H-pyrazolo[4,3-d]pyrimidin-2-yl)acetonitrile] | 11 nM | 111 nM |
| CC[C@H]1CN(C(C)c2ccc3nc(C)sc3c2)[C@H](CC)CN1c1nc(=O)n(C)c2cn(CC#N)nc12 (some centres unmarked) [Compound A124] | 39 nM | 433 nM |
| CC[C@@H]1CN(c2cc(=O)n(C)c3cn(CC#N)nc23)[C@@H](C)CN1C(C)c1ccc2ccsc2n1 (some centres unmarked) [Compound A130] | 46 nM | 215 nM |
| CC[C@@H]1CN(c2cc(=O)n(C)c3cn(CC#N)nc23)[C@@H](C)CN1C(C)c1ccc2cc(C)sc2n1 (stereo partly drawn) [Compound A131, 2-(7-((2S,5R)-5-ethyl-2-methyl-4-(1-(2-methylthieno[2,3-b]pyridin-6-yl)ethyl)piperazin-1-yl)-4-methyl-5-oxo-4,5-dihydro-2H-pyrazolo[4,3-b]pyridin-2-yl)acetonitrile] | 26 nM | 246 nM |
| CC[C@@H]1CN(c2cc(=O)n(C)c3cn(CC#N)nc23)[C@@H](C)CN1C(C)c1ccc2cc(F)sc2n1 (stereo partly drawn) [Compound A132, 2-(7-((2S,5R)-5-ethyl-4-(1-(2-fluorothieno[2,3-b]pyridin-6-yl)ethyl)-2-methylpiperazin-1-yl)-4-methyl-5-oxo-4,5-dihydro-2H-pyrazolo[4,3-b]pyridin-2-yl)acetonitrile] | 139 nM | 63 nM |
| CC#CCn1cc2c(n1)c(N1C[C@@H](CC)N(C(C)c3ccc4nc(C)sc4n3)C[C@@H]1CC)cc(=O)n2C (some centres unmarked) [Compound A137] | 118 nM | 13 nM |
| Cc1cc2nc(C(C)N3C[C@H](C)N(c4cc(=O)n(C)c5cn(CC#N)nc45)C[C@H]3C)ccc2s1 (stereo partly drawn) [Compound A155, 2-(7-((2S,5R)-2,5-dimethyl-4-(1-(2-methylthieno[3,2-b]pyridin-5-yl)ethyl)piperazin-1-yl)-4-methyl-5-oxo-4,5-dihydro-2H-pyrazolo[4,3-b]pyridin-2-yl)acetonitrile] | 74 nM | 378 nM |
| CC[C@H]1CN(C(C)c2ccn3nc(Cl)cc3n2)[C@H](CC)CN1c1cc(=O)n(C)c2cn(CC#N)nc12 (stereo partly drawn) [Compound A175, 2-(7-((2S,5R)-4-(1-(2-chloropyrazolo[1,5-a]pyrimidin-5-yl)ethyl)-2,5-diethylpiperazin-1-yl)-4-methyl-5-oxo-4,5-dihydro-2H-pyrazolo[4,3-b]pyridin-2-yl)acetonitrile] | 79 nM | 32 nM |
| CC[C@H]1CN(C(C)c2cn3ncccc3n2)[C@H](CC)CN1c1cc(=O)n(C)c2cn(CC#N)nc12 (stereo partly drawn) [Compound A180, 2-(7-((2S,5R)-2,5-diethyl-4-(1-(imidazo[1,2-b]pyridazin-2-yl)ethyl)piperazin-1-yl)-4-methyl-5-oxo-4,5-dihydro-2H-pyrazolo[4,3-b]pyridin-2-yl)acetonitrile] | 1180 nM | 2450 nM |
| CC[C@H]1CN(C(C)c2nc3cccnc3s2)[C@H](CC)CN1c1cc(=O)n(C)c2cn(CC#N)nc12 (stereo partly drawn) [Compound A181, 2-(7-((2S,5R)-2,5-diethyl-4-(1-(thiazolo[5,4-b]pyridin-2-yl)ethyl)piperazin-1-yl)-4-methyl-5-oxo-4,5-dihydro-2H-pyrazolo[4,3-b]pyridin-2-yl)acetonitrile] | 178 nM | 470 nM |
| CC[C@H]1CN(C(C)c2ccc(CN3CCC(F)(F)CC3)cn2)[C@H](CC)CN1c1cc(=O)n(C)c2cn(CC#N)nc12 (stereo partly drawn) [Compound A182, 2-(7-((2S,5R)-4-(1-(5-((4,4-difluoropiperidin-1-yl)methyl)pyridin-2-yl)ethyl)-2,5-diethylpiperazin-1-yl)-4-methyl-5-oxo-4,5-dihydro-2H-pyrazolo[4,3-b]pyridin-2-yl)acetonitrile] | 281 nM | 54 nM |
| CC[C@H]1CN(C(C)c2ccc(CC3COC3)cc2)[C@H](CC)CN1c1cc(=O)n(C)c2cn(CC#N)nc12 (stereo partly drawn) [Compound A183, 2-(7-((2S,5R)-2,5-diethyl-4-(1-(4-(oxetan-3-ylmethyl)phenyl)ethyl)piperazin-1-yl)-4-methyl-5-oxo-4,5-dihydro-2H-pyrazolo[4,3-b]pyridin-2-yl)acetonitrile] | 517 nM | 48.2 nM |
| CC[C@H]1CN(C(C)c2ccc3c(c2)OCO3)[C@H](CC)CN1c1cc(=O)n(C)c2cn(CC#N)nc12 (stereo partly drawn) [Compound A185, 2-(7-((2S,5R)4-(1-(benzo[d][1,3]dioxol-5-yl)ethyl)-2,5-diethylpiperazin-1-yl)-4-methyl-5-oxo-4,5-dihydro-2H-pyrazolo[4,3-b]pyridin-2-yl)acetonitrile] | 66.4 nM | 164 nM |
| CC[C@H]1CN(C(C)c2ccc(CC#N)cc2)[C@H](CC)CN1c1cc(=O)n(C)c2cn(CC#N)nc12 (stereo partly drawn) [Compound A190, 2-(4-(1-((2R,5S)-4-(2-(cyanomethyl)-4-methyl-5-oxo-4,5-dihydro-2H-pyrazolo[4,3-b]pyridin-7-yl)-2,5-diethylpiperazin-1-yl)ethyl)phenyl)acetonitrile] | 651 nM | 45 nM |
| CC[C@H]1CN(C(C)c2ccc(C#N)cc2)[C@H](CC)CN1c1cc(=O)n(C)c2cn(CC#N)nc12 (stereo partly drawn) [Compound A191, 4-(1-((2R,5S)-4-(2-(cyanomethyl)-4-methyl-5-oxo-4,5-dihydro-2H-pyrazolo[4,3-b]pyridin-7-y)-2,5-diethylpiperazin-1-yl)ethyl)benzonitrile] | 285 nM | < 23.3 nM |
